Data set [1] is described as follows: in vitro. To be noted: pig.
A further data set deals with WNV (G22886). The experiment in a line: Plaque reduction assay, WNV in PS cells. The conditions noted are these: for IC50: West Nile virus.
The test system of a further data set is Den-2 virus (P23085). The experiment in a line: Plaque reduction assay, Den-2 in BHK 21 cells. It counts as cell-based, Dengue-2 virus. The conditions noted are these: non-cytotoxic concentrations.
Data set [2] has as its system JEV (P20778). Nature of the data set: Plaque reduction assay, JEV in PS cells. The conditions noted are these: for IC50: Japanese encephalitis virus. (In a plaque reduction assay, fewer plaques than in the control indicate reduced infectivity or spread.)
Data set [3] is described as follows: in vitro. To be noted: hamster.
Data set [4] has as its system JEV replication in PS cells. Nature of the data set: Kinetics of antiviral activity: staggered addition of SCH 16 to JEV infected PS cells. It counts as cell-based, Japanese Encephalitis Virus. To be noted: for Inhibition of JEV replication (viral RNA, viral antigen, virus yield): read at 48 hours; for JEV antigen by immunofluorescence: Figure 3 Panel B.
Data set [5] concerns JEV (P20778). Nature of the data set: In vivo evaluation by peripheral (intraperitoneal) JEV challenge. Further details: species or system Swiss albino mice. The conditions noted are these: for Protection: mice, 50LD50 JEV intraperitoneal.
In another data set the test system is JEV. The experiment in a line: In vivo evaluation by intracerebral JEV challenge. More on the design: species or system Swiss albino mice.
Another data set concerns JEV translation. Nature of the data set: In vitro translation of RNA from SCH 16 treated JEV infected PS cells.
The subject of data set [6] is JEV replication in PS cells. Nature of the data set: Minimum contact time: SCH 16 removed at time points from JEV infected PS cells. The class given is cell-based, Japanese Encephalitis Virus.
The subject of a further data set is JEV, WNV and Den-2. Nature of the data set: Cytopathic effect (CPE) inhibition assay. The class given is cell-based. The conditions noted are these: screen against JEV, doubling dilutions beginning with CC50. Background: Damage to the host cells serves as the signal in cytopathic effect assays.
The mark [7] stands for this setting: read-out: IC50, plaque reduction, WNV (molar).
The mark [8] stands for this setting: read-out: IC50, plaque reduction, JEV (molar).

Converted amounts (≈) assume the structure as drawn. Read-outs that look alike come from different tables or passages of the source.

Regarding `NC(=O)c1ncn([C@@H]2O[C@H](CO)[C@@H](O)[C@H]2O)n1` [Ribavirin, reference compound], the results for the CC50 in the data set “in vitro [1]” and in the data set “in vitro [3]” were 50 µg/mL (≈ 205 µM) and 200 µg/mL (≈ 819 µM), respectively. Moreover, the IC50 with WNV (G22886) (read-out: IC50, plaque reduction, WNV) was 1.7 µg/mL; with WNV (G22886) (setting [7]), 7 µM; with JEV (P20778) [2] (72 h, read-out: IC50, plaque reduction, JEV) it was 3.9 µg/mL; with JEV (P20778) [2] (setting [8]) it was 16 µM. Also, the “Antiviral activity against Den-2 plaque formation” value with Den-2 virus (P23085) was “dose dependent inhibition”.
For `COc1cc(-c2cnc(/N=C3\C(=O)N(CN4CCN(c5ccc([N+](=O)[O-])cc5)CC4)c4ccccc43)nc2N)cc(OC)c1OC` [SCH 16], the CC50 in the data set “in vitro [1]” turned out to be 76 µg/mL (≈ 122 µM); in “in vitro [3]” it was 126 µg/mL (≈ 202 µM). The IC50 was determined as 4 µg/mL in the data set with WNV (G22886) (read-out: IC50, concentration inhibiting 50% of the plaques produced by WNV); 6 µM with WNV (G22886) (setting [7]); 16 µg/mL with JEV (P20778) [2] (read-out: IC50, concentration inhibiting 50% of the plaques produced by JEV); 25 µM in the data set on JEV (P20778) [2] (setting [8]). Moreover, the “Therapeutic Index (TI), CC50/IC50, WNV” value in the data set on WNV (G22886) (ratio of CC50 to IC50) came out at 19. Further, the “Antiviral activity against Den-2 plaque formation” value in the data set on Den-2 virus (P23085) is “No antiviral activity”. The “Inhibition of JEV replication (viral RNA, viral antigen, virus yield)” value in data set [4] (76 μg/ml added at 2, 4, 6 and 8 hours post-infection) is recorded as “completely inhibit”; in [4] (added beyond 8 hours post infection) it was “did not completely inhibit”. Moreover, the “JEV antigen by immunofluorescence” value is “undetectable” in data set [4] (SCH 16 added at 0, 2, 4, 6 and 8 hrs post infection); “positive for viral antigen” in data set [4] (SCH 16 added at 10, 12 and 14 hours post infection). The Protection is recorded as 25% in the data set on JEV (P20778) [5] (200 mg/kg body weight oral twice daily); 50% in the data set with JEV (P20778) [5] (400 mg/kg body weight oral twice daily); “complete protection” with JEV (P20778) [5] (500 mg/kg body weight oral twice daily); “no protection” in the data set on JEV (mouse, in vivo). This compound displayed a Prevention of mortality in the data set with JEV (P20778) [5] (mouse, in vivo) of 100%. Besides, in the data set on JEV (P20778) [5] (mouse, in vivo), the “Viral RNA in brain homogenate by RT-PCR” value was “viral RNA was present”. The “Viral antigen in brain smears by immunofluorescent staining” value with JEV (P20778) [5] (mouse, in vivo) is reported as “no viral antigen could be demonstrated”. In addition, the “Virus isolation from brain tissue of surviving mice” value with JEV (P20778) [5] (mouse, in vivo) is on record as “could not be isolated”. For the same compound, the “Therapeutic Index (TI), CC50/IC50, JEV” value in the data set with JEV (P20778) [2] (ratio of CC50 to IC50) turned out to be 5. This compound displayed a Day of death in the data set with JEV (mouse, in vivo) of 9 days. Further, in the data set with JEV (mouse, in vivo), the “Prolonged survival time between treated and untreated mice” value is reported as 3 days. Also, in the data set on JEV (treated mice, intracerebral challenge, untreated sick by day 3), the “Day post-infection when symptoms started appearing” value was 7 days. The entries for the “In vitro translation of viral RNA into JEV proteins” value in the data set with JEV translation (RNA from JEV infected cells treated with SCH 16 for 4 hours) and with JEV translation (RNA from infected cells treated with SCH 16 at 10 hours) were “failed to translate into JEV proteins” and “showed the presence of JEV proteins”, respectively. In data set [6] (JEV infected PS cells), the “Minimum contact period required to completely inhibit virus replication” value is 8 h. Further, the “Inhibition of virus replication (viral antigen, viral RNA, infectious virus yield)” value in [6] (SCH 16 in contact with infected cultures for more than 8 hours post-infection) is reported as “complete inhibition of virus replication”; in data set [6] (SCH16 withdrawn at earlier time points) it was “no inhibition of virus replication”. Moreover, the “Inhibition of CPE” value with JEV, WNV and Den-2 is reported as “showed inhibition of CPE”.

The record behind these values is PMC2408923, “N-methylisatin-beta-thiosemicarbazone derivative (SCH 16) is an inhibitor of Japanese encephalitis virus infection in vitro and in vivo” (Virology Journal, 2008).
